Data on 31 molecules can be found in patent US9840500B2, “Compounds as dual inhibitors of histone methyltransferases and DNA methyltransferases” (FUNDACIÓN PARA LA INVESTIGACIÓN MÉDICA APLICADA, priority 2014, dated 2017).

As usually defined, the IC50 is the concentration that inhibits the measured activity by half. A high value points to lower potency.

Structures can show the parent of a compound that is named as a salt. Some results are limits rather than exact numbers.

One test concerns the target T1, human G9a enzyme (Homo sapiens, UniProt Q96KQ7).
T1 sequence (Q96KQ7 1-1210): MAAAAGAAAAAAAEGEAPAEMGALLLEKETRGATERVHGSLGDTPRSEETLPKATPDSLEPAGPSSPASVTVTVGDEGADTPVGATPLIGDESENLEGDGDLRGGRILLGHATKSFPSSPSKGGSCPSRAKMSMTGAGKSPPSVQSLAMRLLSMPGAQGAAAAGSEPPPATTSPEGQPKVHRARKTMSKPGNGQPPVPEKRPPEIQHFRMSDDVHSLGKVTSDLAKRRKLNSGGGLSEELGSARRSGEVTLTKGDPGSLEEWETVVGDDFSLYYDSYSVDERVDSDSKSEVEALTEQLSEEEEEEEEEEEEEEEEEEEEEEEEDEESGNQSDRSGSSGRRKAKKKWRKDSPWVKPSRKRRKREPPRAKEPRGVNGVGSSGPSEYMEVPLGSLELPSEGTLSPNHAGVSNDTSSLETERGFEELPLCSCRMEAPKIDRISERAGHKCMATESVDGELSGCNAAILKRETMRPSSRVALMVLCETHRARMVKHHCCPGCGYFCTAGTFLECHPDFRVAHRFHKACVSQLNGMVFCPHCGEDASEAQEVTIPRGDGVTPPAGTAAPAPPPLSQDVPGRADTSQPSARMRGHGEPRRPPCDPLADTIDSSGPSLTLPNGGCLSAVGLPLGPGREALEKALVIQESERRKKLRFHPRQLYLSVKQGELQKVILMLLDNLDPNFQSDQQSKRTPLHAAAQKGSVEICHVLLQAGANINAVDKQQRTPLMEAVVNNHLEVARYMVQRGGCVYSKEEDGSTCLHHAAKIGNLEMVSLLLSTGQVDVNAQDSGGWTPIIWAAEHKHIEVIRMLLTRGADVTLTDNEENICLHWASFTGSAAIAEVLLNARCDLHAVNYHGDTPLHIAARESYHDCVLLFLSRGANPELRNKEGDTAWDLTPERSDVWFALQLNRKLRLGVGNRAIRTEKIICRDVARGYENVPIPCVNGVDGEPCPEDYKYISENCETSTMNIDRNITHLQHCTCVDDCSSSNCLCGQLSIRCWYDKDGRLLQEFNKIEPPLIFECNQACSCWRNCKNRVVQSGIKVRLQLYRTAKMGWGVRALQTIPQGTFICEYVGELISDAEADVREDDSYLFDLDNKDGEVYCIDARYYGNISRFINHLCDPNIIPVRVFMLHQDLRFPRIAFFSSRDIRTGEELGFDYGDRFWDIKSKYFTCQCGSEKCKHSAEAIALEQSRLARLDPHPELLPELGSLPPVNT
The test can be described thus: G9a enzyme activity assay (TR-FRET). In kind it is biochemical. As for the experimental part:
The biochemical assay to measure G9a enzyme activity relies on time-resolved fluorescence energy transfer (TR-FRET) between europium cryptate (donor) and XL665 (acceptor). […] The human G9a enzyme expressed in a baculovirus infected Sf9 cell expression system was obtained from BPS Biosciences (Cat. #51001). […] Final percentage of DMSO was 0.5%. • 2 μl of 1 nM G9a enzyme diluted in assay buffer. […] Final concentration 150 nM. • Then, add 5 μl of streptavidin XL665 beads. Final concentration of 16 μM. • Read the plate after 1 hour of incubation at room temperature.
(§1) For each well, fluorescence was measured at 620 nm and 665 nm. A ratio (665 nm/620 nm) was then calculated in order to minimize medium interferences. Positive control was obtained in the presence of the vehicle of the compounds. Negative control was obtained in the absence of G9a enzyme activity. Calculated IC50 values were determined using GraphPrism using 4-parameters inhibition curve.
(In TR-FRET formats the signal depends on donor and acceptor labels being close together.)

Another test has as its target DNMT1 (Homo sapiens, UniProt P26358). Nature of the test: DNMT1 enzyme activity assay (TR-FRET, EPIgeneous methyltransferase assay). In kind it is biochemical. As for the experimental part:
The biochemical assay to measure DNMT1 enzyme activity relies on time-resolved fluorescence energy transfer (TR-FRET) between lumi4-Tb (donor) and d2 (acceptor) using the EPIgeneous methyltransferase assay (CisBio Cat#62SAHPEB). […] TR-FRET signal is inversely proportional to the concentration of SAH, product of DNMT1 enzyme activity, in the sample.
The human DNMT1 was obtained from Reaction Biology Corp. (Cat# DMT-21-124). […] Final percentage of DMSO was 0.5%. • 2 μl of 1 nM DNMT1 enzyme diluted in assay buffer.
as §1

Sequence of DNMT1 (P26358 whole entry): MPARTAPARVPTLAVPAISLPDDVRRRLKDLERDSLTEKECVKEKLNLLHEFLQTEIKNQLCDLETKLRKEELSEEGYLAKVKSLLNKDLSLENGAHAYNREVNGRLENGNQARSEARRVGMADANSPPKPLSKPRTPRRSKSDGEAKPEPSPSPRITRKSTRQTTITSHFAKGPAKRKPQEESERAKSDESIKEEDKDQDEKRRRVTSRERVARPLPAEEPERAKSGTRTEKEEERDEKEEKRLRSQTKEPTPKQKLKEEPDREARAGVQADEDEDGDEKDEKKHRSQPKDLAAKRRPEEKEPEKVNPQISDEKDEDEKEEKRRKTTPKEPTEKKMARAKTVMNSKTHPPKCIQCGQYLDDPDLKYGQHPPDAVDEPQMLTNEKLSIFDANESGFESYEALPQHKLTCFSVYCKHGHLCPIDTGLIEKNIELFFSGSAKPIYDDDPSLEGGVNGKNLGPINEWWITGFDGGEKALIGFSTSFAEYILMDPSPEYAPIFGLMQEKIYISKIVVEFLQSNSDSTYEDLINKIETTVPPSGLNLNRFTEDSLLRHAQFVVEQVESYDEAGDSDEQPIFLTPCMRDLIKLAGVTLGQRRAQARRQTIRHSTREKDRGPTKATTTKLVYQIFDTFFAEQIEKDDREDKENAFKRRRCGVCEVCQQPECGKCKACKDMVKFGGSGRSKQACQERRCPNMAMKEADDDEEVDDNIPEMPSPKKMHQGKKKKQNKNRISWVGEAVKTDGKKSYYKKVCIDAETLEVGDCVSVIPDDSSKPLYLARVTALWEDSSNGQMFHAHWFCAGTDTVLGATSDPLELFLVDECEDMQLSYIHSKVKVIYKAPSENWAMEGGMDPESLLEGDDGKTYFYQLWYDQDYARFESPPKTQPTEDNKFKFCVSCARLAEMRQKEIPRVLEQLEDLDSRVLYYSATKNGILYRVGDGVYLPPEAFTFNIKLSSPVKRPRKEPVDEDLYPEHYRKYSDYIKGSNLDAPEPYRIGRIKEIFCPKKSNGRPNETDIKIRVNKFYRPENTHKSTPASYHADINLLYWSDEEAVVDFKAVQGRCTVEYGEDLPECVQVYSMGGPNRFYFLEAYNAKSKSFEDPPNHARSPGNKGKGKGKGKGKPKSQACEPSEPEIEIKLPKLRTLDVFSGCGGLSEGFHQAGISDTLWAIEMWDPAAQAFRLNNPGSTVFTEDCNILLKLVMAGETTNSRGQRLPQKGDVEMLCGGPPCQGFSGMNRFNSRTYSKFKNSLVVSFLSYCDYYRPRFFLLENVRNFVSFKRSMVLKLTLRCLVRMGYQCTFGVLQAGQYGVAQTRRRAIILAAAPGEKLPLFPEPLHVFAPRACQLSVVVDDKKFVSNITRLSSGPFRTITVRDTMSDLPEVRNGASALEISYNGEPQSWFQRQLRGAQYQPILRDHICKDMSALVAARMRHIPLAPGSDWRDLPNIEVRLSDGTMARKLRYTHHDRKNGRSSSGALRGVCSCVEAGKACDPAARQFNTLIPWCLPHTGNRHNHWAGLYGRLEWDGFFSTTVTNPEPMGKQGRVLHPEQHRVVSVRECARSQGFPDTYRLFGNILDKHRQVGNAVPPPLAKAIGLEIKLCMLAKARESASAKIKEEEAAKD

`COc1cc2c(NC3CCNC(=O)C3)cc(-c3ccc(C)o3)nc2cc1OCCCN1CCCC1` (centres unmarked) [Compound 3-18]: the IC50 was in the range of 100 to 500 nM on human G9a enzyme and 1000 to 10000 nM on DNMT1.
As for `COc1cc2c(NC3CCN(C)C(=O)C3)cc(-c3ccc(C)[nH]3)nc2cc1OCC1CCNCC1` (centres unmarked) [Compound 11-11], the IC50 at human G9a enzyme and against DNMT1 was 500 to 1000 nM throughout.
On to `COc1cc2c(NC3CC3)cc(-c3ccc(C)[nH]3)nc2cc1OCC1CCNCC1` [Compound 11-08], for which the IC50 on human G9a enzyme and against DNMT1 was 1000 to 10000 nM each time.
On to `COc1cc2c(NC3CCN(C)CC3)cc(-c3ccc(CN(C)C)o3)nc2cc1OCCCN1CCCC1` [Compound 8-01, 2-[5-[(dimethylamino)methyl]-2-furyl]-6-methoxy-N-(1-methyl-4-piperidyl)-7-(3-pyrrolidin-1-ylpropoxy)quinolin-4-amine; 2,2,2-trifluoroacetic acid], for which the 50% inhibitory concentration (IC50) against human G9a enzyme was in the range of 100 to 500 nM; on DNMT1 it was 1000 to 10000 nM.
`COc1cc2c(NC3CCN(C)CC3)cc(-c3cc4ccccc4o3)nc2cc1OCCCN1CCCC1` [Compound 3-25]: the IC50 against human G9a enzyme and against DNMT1 was 1000 to 10000 nM each time.
For the molecule `COc1cc2c(NCC3CCCC3)cc(-c3ccc(C)o3)nc2cc1OCCCN1CCCC1` [Compound 3-14], the IC50 against human G9a enzyme and on DNMT1 was 1000 to 10000 nM in each case.
`COc1cc2c(NCC3CCN(C)C(=O)C3)cc(-c3ccc(C)[nH]3)nc2cc1OCC1CCNCC1` (centres unmarked) [Compound 11-07]: the IC50 on human G9a enzyme and on DNMT1 was 500 to 1000 nM in each case.
Regarding `COc1cc2c(NC3CCC(C)(O)CC3)cc(-c3ccc(C)o3)nc2cc1OCCCN1CCCC1` (centres unmarked) [Compound 3-45], the IC50 at human G9a enzyme lay within 100 to 500 nM; against DNMT1 it was 1000 to 10000 nM.
`COc1cc2c(NC3CCNCC3)cc(C3CCCCC3)nc2cc1OCCCN1CCCC1` [Compound 7-04, 2-cyclohexyl-6-methoxy-N-(4-piperidyl)-7-(3-pyrrolidin-1-ylpropoxy)quinolin-4-amine; 2,2,2-trifluoroacetic acid]: the IC50 is < 100 nM against human G9a enzyme and 500 to 1000 nM against DNMT1.
Take `COc1cc2c(NC3CCN(C)CC3)cc(-c3cc(C)oc3C)nc2cc1OCCCN1CCCC1` [Compound 3-35]: the results for the IC50 on human G9a enzyme and at DNMT1 were < 100 nM and 500 to 1000 nM, respectively.
In the case of `CCc1ccc(-c2cc(NC3CCN(C)CC3)c3cc(OC)c(OCC4CCNCC4)cc3n2)o1` [Compound 11-03], the IC50 against human G9a enzyme lay within 1000 to 10000 nM; against DNMT1 it was 500 to 1000 nM.
With `CCc1ccc(-c2cc(NC3CCC34CCN(C3CC3)CC4)c3cc(OC)c(OCCCN4CCCC4)cc3n2)o1` (centres unmarked) [Compound 19-02, N-(7-cyclopropyl-7-azaspiro[3.5]nonan-3-yl)-2-(5-ethyl-2-furyl)-6-methoxy-7-(3-pyrrolidin-1-ylpropoxy)quinolin-4-amine; 2,2,2-trifluoroacetic acid], the concentration for half-maximal inhibition (IC50) at human G9a enzyme lay within 500 to 1000 nM; on DNMT1, 100 to 500 nM.
Take `COc1cc2c(NC3CCN(C)CC3)cc(-c3ccc(C)o3)nc2cc1OC1CCN(C(=O)OC(C)(C)C)CC1` [Compound 19-03]: the 50% inhibitory concentration (IC50) against human G9a enzyme and against DNMT1 was 1000 to 10000 nM throughout.
Consider `COc1cc2c(NC3CC4(CCNCC4)C3)cc(-c3ccc(C)[nH]3)nc2cc1OCC1CCNCC1` [Compound 11-09], for which the IC50 against human G9a enzyme and against DNMT1 was 100 to 500 nM throughout.
`COc1cc2c(NC3CCN(C)CC3)cc(-c3cc[nH]c(=O)c3)nc2cc1OCCCN1CCCC1` [Compound 3-37]: the IC50 against human G9a enzyme fell in the range of 100 to 500 nM; at DNMT1 it was 1000 to 10000 nM.
Consider `COc1cc2c(NC3CCN(C)CC3)cc(-c3ccc(-c4ccccc4)o3)nc2cc1OCCCN1CCCC1` [Compound 3-32], for which the IC50 at human G9a enzyme and against DNMT1 was 1000 to 10000 nM in each case.
As to `COc1cc2c(NC3CCN(C)CC3)cc(-c3ccc(C#N)o3)nc2cc1OCCCN1CCCC1` [Compound 10-01, 5-[6-methoxy-4-[(1-methyl-4-piperidyl)-amino]-7-(3-pyrrolidin-1-ylpropoxy)-2-quinolyl]furan-2-carbonitrile; 2,2,2-trifluoroacetic acid], the IC50 fell in the range of 100 to 500 nM at human G9a enzyme and 1000 to 10000 nM against DNMT1.
On the same counts, the results for `COc1cc2c(NC3CC4(CCNCC4)C3)cc(-c3ccc(C)o3)nc2cc1OCC1CCNCC1` [Compound 11-10] are 1000 to 10000 nM and 100 to 500 nM.
With `COc1cc2c(NC3CCN(C)CC3)cc(C)nc2cc1OCCCN1CCCC1` [Compound 3-23], the IC50 against human G9a enzyme is < 100 nM; at DNMT1 it was 500 to 1000 nM.
Consider `COc1cc2c(NC3CCN(C)CC3)cc(-c3ccn(C)n3)nc2cc1OCCCN1CCCC1` [Compound 3-33], for which the IC50 against human G9a enzyme was < 100 nM; at DNMT1, 1000 to 10000 nM.
In the same order, the values of `COc1cc2c(NCCC(F)(F)F)cc(-c3ccc(C)o3)nc2cc1OCCCN1CCCC1` [Compound 3-11] are 100 to 500 nM and 1000 to 10000 nM.
As for `CCNCc1ccc(-c2cc(NC3CCN(C)CC3)c3cc(OC)c(OCCCN4CCCC4)cc3n2)o1` [Compound 8-02], the IC50 against human G9a enzyme is < 100 nM; against DNMT1, 500 to 1000 nM.
Consider `COc1cc2c(NC3CCN(C)CC3)cc(C3=CCOCC3)nc2cc1OCCCN1CCCC1` [Compound 6-02], for which the IC50 was < 100 nM against human G9a enzyme and 500 to 1000 nM on DNMT1.
On to `COc1cc2c(NC3CCN(C)CC3)cc(C3CCC(C)O3)nc2cc1OCCCN1CCCC1` (centres unmarked) [Compound 15-01, 6-methoxy-N-(1-methyl-4-piperidyl)-2-(5-methyltetrahydrofuran-2-yl)-7-(3-pyrrolidin-1-ylpropoxy)quinolin-4-amine; 2,2,2-trifluoroacetic acid], for which the IC50 at human G9a enzyme was < 100 nM; against DNMT1, 1000 to 10000 nM.
On the same counts, the results for `COc1cc2c(NC3CCN(C)CC3)cc(-c3cccnc3)nc2cc1OCCCN1CCCC1` [Compound 3-30] are < 100 nM and 1000 to 10000 nM.
On to `COc1cc2c(NC3CC4(CCNCC4)C3)cc(-c3ccc(C)[nH]3)nc2cc1OCCCN1CCCC1` [Compound 4-02, N-(7-azaspiro[3.5]nonan-2-yl)-6-methoxy-2-(5-methyl-1H-pyrrol-2-yl)-7-(3-pyrrolidin-1-ylpropoxy)quinolin-4 amine; hydrochloride], for which the IC50 is < 100 nM on human G9a enzyme and 1000 to 10000 nM against DNMT1.
`COc1cc2c(NC3CCN(C)CC3)cc(-c3ccccc3C)nc2cc1OCCCN1CCCC1` [Compound 3-34]: the IC50 on human G9a enzyme was < 100 nM; against DNMT1, 1000 to 10000 nM.
`COc1cc2c(NC3CCN(C)CC3)cc(C3CCCCC3)nc2cc1OCCCN1CCCC1` [Compound 7-01, 2-cyclohexyl-6-methoxy-N-(1-methyl-4-piperidyl)-7-(3-pyrrolidin-1-ylpropoxy)quinolin-4-amine; 2,2,2-trifluoroacetic acid]: the values for the IC50 on human G9a enzyme and on DNMT1 were < 100 nM and 100 to 500 nM, respectively.
On the same counts, the results for `COc1cc2c(NC3CCC34CCNCC4)cc(-c3ccc(C)o3)nc2cc1OCCCN1CCCC1` (centres unmarked) [Compound 4-01, N-(7-azaspiro[3.5]nonan-3-yl)-6-methoxy-2-(5-methyl-2-furyl)-7-(3-pyrrolidin-1-ylpropoxy)quinolin-4-amine; 2,2,2-trifluoroacetic acid] are < 100 nM and 100 to 500 nM.
In the same order, the values of `COc1cc2c(NC3CCOCC3)cc(-c3ccc(C)o3)nc2cc1OCCCN1CCCC1` [Compound 3-16] are 100 to 500 nM and 1000 to 10000 nM.
On to `COc1cc2c(NCC3CCN(C)CC3)cc(-c3ccc(C)[nH]3)nc2cc1OCC1CCNCC1` [Compound 11-06], for which the IC50 on human G9a enzyme and against DNMT1 was 100 to 500 nM in each case.
